Assay results: patent US11219611B2 (Ocera Therapeutics, Inc., priority 2015, dated 2022)

What was measured:
[1] = Phase 1 single-dose crossover study in healthy subjects: plasma PAA and PAGN pharmacokinetics
Experimental: Plasma samples were analyzed for concentrations of phenylacetic acid (PAA), phenylacetylglutamine (PAGN) and ornithine (ORN) using a validated LC-MS/MS method. All urine samples were analyzed for concentrations of PAGN using a validated LC-MS/MS method.
Pharmacokinetics: Plasma concentration vs. time profiles of phenylacetate, ornithine, and phenylacetylglutamine following a single oral dose of each of the study drug were analyzed by noncompartmental PK methods. Pharmacokinetic parameters that were determined include Cmax, tmax, AUC0-t, AUC0-∞, C12 and t1/2.

[2] = tested on: hepatic encephalopathy; conditions: cited from earlier work
[3] = Phase 1 study in healthy subjects: urinary excretion of PAGN over 24 hours; assay type: in vivo, human; conditions: single oral dose; for Percent PAA Dose Excreted over 24 hours: urine as PAGN
Experimental: Plasma samples were separated by centrifugation within 1 hour of blood collection and stored at approximately −80° C. until analyzed. The total urine volume for each collection interval were measured and recorded and aliquots of urine were stored at approximately −80° C. until analyzed.

[4] = tested on: ammonia; conditions: clinical study reported by Jalan et al. 2007; cited from earlier work

Compound | time after dosing at which mean plasma PAGN Cmax occurred ([1]; single oral dose (10 g extended-release formulation or 6 mL RAVICTI)) | mean maximum concentration (Cmax) of plasma PAA ([1]; single oral dose (10 g extended-release formulation or 6 mL RAVICTI, each about 5 g PAA equivalent)) | incidence of hepatic encephalopathy events ([2]; clinical studies, 6 mL twice daily) | efficacy for the treatment of hepatic encephalopathy ([2]; clinical trials (Rockey et al., Hepatology 2014)) | PAA converted to PAGN excretion over 24 hours (conversion efficiency) ([3]; Table 2) | Percent PAA Dose Excreted over 24 hours ([3]; mean) | Percent PAA Dose Excreted over 24 hours ([3]; median) | Total PAGN Amount Excreted over 24 hours ([3]; urine, mean) | PAA Equivalents Excreted over 24 hours ([3]; urine, median) | Total PAGN Amount Excreted over 24 hours ([3]; urine, median) | ammonia lowering [4]
O=C(CCCc1ccccc1)OCC(COC(=O)CCCc1ccccc1)OC(=O)CCCc1ccccc1 [RAVICTI®, glycerol phenylbutyrate] | approximately 5 hours | approximately 10 μg/mL | lower the incidence of hepatic encephalopathy events | preliminary efficacy | about 40% | 42.7% | 42.1% | 4.11 G | 2.09 G | 4.06 G | 
L-ornithine phenylacetate |  |  |  |  |  |  |  |  |  |  | useful in ammonia lowering
